Consider 29 compounds from patent US7973061B2, “Anaplastic lymphoma kinase modulators and methods of use” (Exelixis, Inc., priority 2004, dated 2011).

Where two headings read alike, the source gives them in different places.

This assay addresses T1, ALK (baculovirus expressed human ALK kinase domain F1098-K1410) (Homo sapiens, UniProt Q9UM73).
T1 construct: human ALK kinase domain F1098-K1410; made in house
Briefly: biochemical. The procedure:
Kinase activity and compound inhibition are investigated using one or more of the three assay formats described below. The ATP concentrations for each assay are selected to be close to the Michaelis-Menten constant (KM) for each individual kinase. Dose-response experiments are performed at 10 different inhibitor concentrations in a 384-well plate format. […] Y=Min+(Max−Min)/(1+(X/IC50)^H) Equation (2) Luciferase-Coupled Chemiluminescent Kinase Assay
ALK biochemical activity was assessed using a Luciferase-Coupled Chemiluminescent Kinase assay (LCCA) format in which kinase activity was measured as the percent ATP remaining following the kinase reaction. ATP remaining after the kinase reaction was detected by luciferase-luciferin-coupled chemiluminescence. […] The mixture was incubated at ambient temperature for 2 hours after which 20 μL luciferase-luciferin mix was added and the chemiluminescent signal read using a Wallac Victor^2 reader. […] Consumption of ATP by ALK can be quantified and utilized as a measure of inhibition of ALK activity by compounds described herein. By employing serial dilutions of compounds to be tested, the ability of test compounds to inhibit ALK activity can be determined.

Where [1] appears, read: 1 μM ATP, 4 μM poly-AEKY, 12 nM ALK, 2 hours at ambient temperature, read-out: ALK IC50.

T1 sequence (Q9UM73 1098-1410): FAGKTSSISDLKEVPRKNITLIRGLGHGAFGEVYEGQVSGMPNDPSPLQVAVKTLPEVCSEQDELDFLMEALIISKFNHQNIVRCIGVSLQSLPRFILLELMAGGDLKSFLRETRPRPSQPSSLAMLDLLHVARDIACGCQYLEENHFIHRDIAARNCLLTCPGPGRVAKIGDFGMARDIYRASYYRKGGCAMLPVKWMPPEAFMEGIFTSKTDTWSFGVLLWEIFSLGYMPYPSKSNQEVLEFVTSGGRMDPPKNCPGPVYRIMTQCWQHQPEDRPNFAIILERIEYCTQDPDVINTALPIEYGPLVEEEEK

One may read the IC50 as the concentration needed to halve the response being measured. With `O=C(COc1ccc(OC(F)(F)F)cc1)NCc1nc(C(=O)NC2CCN(Cc3ccccc3)CC2)cs1` [Entry 84, N-[1-(phenylmethyl)piperidin-4-yl]-2-({[({4-[(trifluoromethyl)oxy]phenyl}oxy)acetyl]amino}methyl)-1,3-thiazole-4-carboxamide], the IC50 under setting [1] lay in the range of 0.05 to 0.5 µM.

`O=C(COc1ccc(OC(F)(F)F)cc1)NCc1nc(C(=O)NCc2ccccc2Cl)co1` [Entry 261, N-[(2-chlorophenyl)methyl]-2-({[({4-[(trifluoromethyl)oxy]phenyl}oxy)acetyl]amino}methyl)-1,3-oxazole-4-carboxamide]: the half-inhibitory concentration (IC50) under setting [1] is 0.5 to 2 µM.

Take `O=C(COc1ccc(OC(F)(F)F)cc1)NCc1nc(C(=O)O)co1` [Entry 308, 2-({[({4-[(trifluoromethyl)oxy]phenyl}oxy)acetyl]amino}methyl)-1,3-oxazole-4-carboxylic acid]: the IC50 under setting [1] was above 2 µM.

With `CC(C)(C)CC(C)(C)NC(=O)c1csc(CNC(=O)COc2ccc(OC(F)(F)F)cc2)n1` [Entry 196, N-(1,1,3,3-tetramethylbutyl)-2-({[({4-[(trifluoromethyl)oxy]phenyl}oxy)acetyl]amino}methyl)-1,3-thiazole-4-carboxamide], under setting [1], the IC50 lay within 0.05 to 0.5 µM.

As to `O=C(COc1ccc(OC(F)(F)F)cc1)NCc1nc(C(=O)NCC2CC2)cs1` [Entry 216, N-(cyclopropylmethyl)-2-({[({4-[(trifluoromethyl)oxy]phenyl}oxy)acetyl]amino}methyl)-1,3-thiazole-4-carboxamide], the IC50 under setting [1] was 0.05 to 0.5 µM.

Take `O=C(COc1ccc(OC(F)(F)F)cc1)NCc1nc(C(=O)NCCc2cccs2)cs1` [Entry 19, N-[2-(2-thienyl)ethyl]-2-({[({4-[(trifluoromethyl)oxy]phenyl}oxy)acetyl]amino}methyl)-1,3-thiazole-4-carboxamide]: under setting [1], the IC50 is below 0.05 µM.

With `CCOc1cccc(CCNC(=O)c2csc(CNC(=O)COc3ccc(OC(F)(F)F)cc3)n2)c1` [Entry 28, N-{2-[3-(ethyloxy)phenyl]ethyl}-2-({[({4-[(trifluoromethyl)oxy]phenyl}oxy)acetyl]amino}methyl)-1,3-thiazole-4-carboxamide], the IC50 under setting [1] is 0.05 to 0.5 µM.

Regarding `O=C(COc1ccc(OC(F)(F)F)cc1)NCc1nc(C(=O)NCCc2ccc(Cl)c(Cl)c2)cs1` [Entry 44, N-[2-(3,4-dichlorophenyl)ethyl]-2-({[({4-[(trifluoromethyl)oxy]phenyl}oxy)acetyl]amino}methyl)-1,3-thiazole-4-carboxamide], the IC50 under setting [1] is 0.05 to 0.5 µM.

For the compound `CCCCCCN(CCC#N)C(=O)c1csc(CNC(=O)COc2ccc(OC(F)(F)F)cc2)n1` [Entry 238, N-(2-cyanoethyl)-N-hexyl-2-({[({4-[(trifluoromethyl)oxy]phenyl}oxy)acetyl]amino}methyl)-1,3-thiazole-4-carboxamide], the half-maximal inhibitory concentration (IC50) under setting [1] fell in the range of 0.5 to 2 µM.

Take `O=C(COc1ccc(OC(F)(F)F)cc1)NCc1nc(C(=O)NC2CCCC2)cs1` [Entry 228, N-cyclopentyl-2-({[({4-[(trifluoromethyl)oxy]phenyl}oxy)acetyl]amino}methyl)-1,3-thiazole-4-carboxamide]: the IC50 under setting [1] was 0.5 to 2 µM.

For `CCOc1ccc(CCNC(=O)c2csc(CNC(=O)COc3ccc(OC(F)(F)F)cc3)n2)cc1` [Entry 68, N-{2-[4-(ethyloxy)phenyl]ethyl}-2-({[({4-[(trifluoromethyl)oxy]phenyl}oxy)acetyl]amino}methyl)-1,3-thiazole-4-carboxamide], under setting [1], the IC50 was 0.05 to 0.5 µM.

With `O=C(COc1ccc(OC(F)(F)F)cc1)NCc1nc(C(=O)NC(c2ccccc2)c2ccccc2)cs1` [Entry 167, N-(diphenylmethyl)-2-({[({4-[(trifluoromethyl)oxy]phenyl}oxy)acetyl]amino}methyl)-1,3-thiazole-4-carboxamide], the IC50 under setting [1] was in the range of 0.05 to 0.5 µM.

Regarding `O=C(COc1ccc(OC(F)(F)F)cc1)NCc1nc(C(=O)NCc2ccc(Cl)cc2)cs1` [Entry 227, N-[(4-chlorophenyl)methyl]-2-({[({4-[(trifluoromethyl)oxy]phenyl}oxy)acetyl]amino}methyl)-1,3-thiazole-4-carboxamide], under setting [1], the IC50 lay within 0.5 to 2 µM.

Turning to `COc1ccccc1CNC(=O)c1csc(CNC(=O)COc2ccc(Cl)cc2)n1` [Entry 263, 2-[({[(4-chlorophenyl)oxy]acetyl}amino)methyl]-N-{[2-(methyloxy)phenyl]methyl}-1,3-thiazole-4-carboxamide], the IC50 under setting [1] is 0.5 to 2 µM.

`COc1ccccc1CNC(=O)c1csc(CNC(=O)c2cccnc2Oc2ccc(Cl)cc2)n1` [Entry 198, 2-[(4-chlorophenyl)oxy]-N-({4-[({[2-(methyloxy)phenyl]methyl}amino)carbonyl]-1,3-thiazol-2-yl}methyl)pyridine-3-carboxamide]: the IC50 under setting [1] lay in the range of 0.05 to 0.5 µM.

`O=C(COc1ccc(OC(F)(F)F)cc1)NCc1nc(C(=O)NCCOc2ccccc2)cs1` [Entry 122, N-[2-(phenyloxy)ethyl]-2-({[({4-[(trifluoromethyl)oxy]phenyl}oxy)acetyl]amino}methyl)-1,3-thiazole-4-carboxamide] gave an IC50 of 0.05 to 0.5 µM.

Regarding `O=C(COc1ccc(OC(F)(F)F)cc1)NC(Cc1ccccc1)c1nc(C(=O)NCCc2cccc(Cl)c2)cs1` (centres unmarked) [Entry 131, N-[2-(3-chlorophenyl)ethyl]-2-(2-phenyl-1-{[({4-[(trifluoromethyl)oxy]phenyl}oxy)acetyl]amino}ethyl)-1,3-thiazole-4-carboxamide], the IC50 under setting [1] was 0.05 to 0.5 µM.

Regarding `CCCCC(CC)COCCCNC(=O)c1csc(CNC(=O)COc2ccc(OC(F)(F)F)cc2)n1` (centres unmarked) [Entry 100, N-{3-[(2-ethylhexyl)oxy]propyl}-2-({[({4-[(trifluoromethyl)oxy]phenyl}oxy)acetyl]amino}methyl)-1,3-thiazole-4-carboxamide], the IC50 under setting [1] is 0.05 to 0.5 µM.

Regarding `O=C(COc1ccc(OC(F)(F)F)cc1)NCc1nc(C(=O)NCCc2ccccc2Cl)cs1` [Entry 104, N-[2-(2-chlorophenyl)ethyl]-2-({[({4-[(trifluoromethyl)oxy]phenyl}oxy)acetyl]amino}methyl)-1,3-thiazole-4-carboxamide], the IC50 under setting [1] was in the range of 0.05 to 0.5 µM.

Regarding `O=C(NCCc1cccc(Cl)c1)c1csc(CNC(=O)c2cccnc2Oc2ccc(Cl)cc2)n1` [Entry 62, N-{[4-({[2-(3-chlorophenyl)ethyl]amino}carbonyl)-1,3-thiazol-2-yl]methyl}-2-[(4-chlorophenyl)oxy]pyridine-3-carboxamide], under setting [1], the IC50 lay within 0.05 to 0.5 µM.

As for `CCN1CCCC1CNC(=O)c1csc(CNC(=O)COc2ccc(OC(F)(F)F)cc2)n1` (centres unmarked) [Entry 275, N-[(1-ethylpyrrolidin-2-yl)methyl]-2-({[({4-[(trifluoromethyl)oxy]phenyl}oxy)acetyl]amino}methyl)-1,3-thiazole-4-carboxamide], the IC50 under setting [1] was in the range of 0.5 to 2 µM.

For the compound `CC(C)c1ccc(CC(=O)NCc2nc(C(=O)NCCc3cccc(Cl)c3)cs2)cc1` [Entry 50, N-[2-(3-chlorophenyl)ethyl]-2-[({[4-(1-methylethyl)phenyl]acetyl}amino)methyl]-1,3-thiazole-4-carboxamide], the IC50 under setting [1] was in the range of 0.05 to 0.5 µM.

Regarding `COc1ccc(CNC(=O)c2csc(CNC(=O)COc3ccc(OC(F)(F)F)cc3)n2)cc1OC` [Entry 187, N-{[3,4-bis(methyloxy)phenyl]methyl}-2-({[({4-[(trifluoromethyl)oxy]phenyl}oxy)acetyl]amino}methyl)-1,3-thiazole-4-carboxamide], the IC50 under setting [1] lay within 0.05 to 0.5 µM.

Take `O=C(COc1ccc(OC(F)(F)F)cc1)NCc1nc(C(=O)NCC2CCCCC2)cs1` [Entry 172, N-(cyclohexylmethyl)-2-({[({4-[(trifluoromethyl)oxy]phenyl}oxy)acetyl]amino}methyl)-1,3-thiazole-4-carboxamide]: the IC50 under setting [1] was 0.05 to 0.5 µM.

Consider `O=C(COc1ccc(OC(F)(F)F)cc1)NCc1nc(C(=O)NCc2cc(C(F)(F)F)ccc2Cl)cs1` [Entry 97, N-{[2-chloro-5-(trifluoromethyl)phenyl]methyl}-2-({[({4-[(trifluoromethyl)oxy]phenyl}oxy)acetyl]amino}methyl)-1,3-thiazole-4-carboxamide], for which the IC50 under setting [1] fell in the range of 0.05 to 0.5 µM.

Consider `CCCOCCCNC(=O)c1csc(CNC(=O)COc2ccc(OC(F)(F)F)cc2)n1` [Entry 74, N-[3-(propyloxy)propyl]-2-({[({4-[(trifluoromethyl)oxy]phenyl}oxy)acetyl]amino}methyl)-1,3-thiazole-4-carboxamide], for which, under setting [1], the IC50 was 0.05 to 0.5 µM.

Consider `O=C(COc1ccc(OC(F)(F)F)cc1)NCc1nc(C(=O)NCCC2=CCCCC2)co1` [Entry 176, N-(2-cyclohex-1-en-1-ylethyl)-2-({[({4-[(trifluoromethyl)oxy]phenyl}oxy)acetyl]amino}methyl)-1,3-oxazole-4-carboxamide], for which the IC50 under setting [1] lay in the range of 0.05 to 0.5 µM.

In the case of `CC(C)c1ccc(OCC(=O)NCc2nc(C(=O)NCCc3ccccc3F)cs2)cc1` [Entry 55, N-[2-(2-fluorophenyl)ethyl]-2-{[({[4-(1-methylethyl)phenyl]oxy}acetyl)amino]methyl}-1,3-thiazole-4-carboxamide], the IC50 under setting [1] fell in the range of 0.05 to 0.5 µM.

Consider `CSc1ccccc1CNC(=O)c1csc(CNC(=O)COc2ccc(OC(F)(F)F)cc2)n1` [Entry 41, N-{[2-(methylthio)phenyl]methyl}-2-({[({4-[(trifluoromethyl)oxy]phenyl}oxy)acetyl]amino}methyl)-1,3-thiazole-4-carboxamide], for which the IC50 under setting [1] lay within 0.05 to 0.5 µM.
